Paper PMC10418395, “Tetracyclic 1,4-Naphthoquinone Thioglucoside Conjugate U-556 Blocks the Purinergic P2X7 Receptor in Macrophages and Exhibits Anti-Inflammatory Activity In Vivo” (International Journal of Molecular Sciences, 2023)

Legend:
P2X7 receptor (mP2X7R) [1] = target: T1, P2X7 receptor (mP2X7R) (Mus musculus, UniProt Q9Z1M0); experiment: ATP/BzATP-induced YO-PRO-1 uptake and Ca2+ influx in RAW […] cells; format: cell-based
T1 construct: gene P2rx7
T1 sequence (Q9Z1M0 1-595): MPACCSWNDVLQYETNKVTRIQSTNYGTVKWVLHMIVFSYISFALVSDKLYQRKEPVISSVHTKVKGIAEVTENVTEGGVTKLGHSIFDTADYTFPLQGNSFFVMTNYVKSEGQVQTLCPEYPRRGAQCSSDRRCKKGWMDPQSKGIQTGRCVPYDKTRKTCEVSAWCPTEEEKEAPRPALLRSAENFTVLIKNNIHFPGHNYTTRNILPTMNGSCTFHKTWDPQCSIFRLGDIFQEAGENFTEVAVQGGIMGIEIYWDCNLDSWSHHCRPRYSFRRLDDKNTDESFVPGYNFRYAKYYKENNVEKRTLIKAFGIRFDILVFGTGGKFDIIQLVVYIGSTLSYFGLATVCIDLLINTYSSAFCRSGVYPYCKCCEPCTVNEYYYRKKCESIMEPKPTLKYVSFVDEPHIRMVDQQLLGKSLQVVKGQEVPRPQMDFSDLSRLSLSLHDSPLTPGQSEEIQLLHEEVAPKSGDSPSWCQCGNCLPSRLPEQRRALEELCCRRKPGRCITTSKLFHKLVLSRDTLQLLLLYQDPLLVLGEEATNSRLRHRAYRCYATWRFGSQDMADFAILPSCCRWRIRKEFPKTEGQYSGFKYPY

P2X7 receptor (hP2X7) = target: T2, P2X7 receptor (hP2X7) (Homo sapiens, UniProt Q99572); experiment: SPR (Biacore […], CM5 chip, Langmuir […]); format: binding
T2 construct: gene P2RX7
T2 sequence (Q99572 47-334): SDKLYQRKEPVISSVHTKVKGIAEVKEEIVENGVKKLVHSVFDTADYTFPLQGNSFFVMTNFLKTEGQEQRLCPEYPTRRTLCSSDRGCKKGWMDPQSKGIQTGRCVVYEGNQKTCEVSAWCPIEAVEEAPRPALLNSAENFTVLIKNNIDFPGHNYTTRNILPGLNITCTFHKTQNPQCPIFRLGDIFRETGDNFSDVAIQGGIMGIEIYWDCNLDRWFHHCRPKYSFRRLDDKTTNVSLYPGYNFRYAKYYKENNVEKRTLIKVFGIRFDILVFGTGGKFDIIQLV

P2X7 receptor (mP2X7R) [2] = target: T1, P2X7 receptor (mP2X7R); experiment: BzATP/ATP-induced YO-PRO-1 uptake and Ca2+ influx in RAW […] cells; format: cell-based

Row | Kd (P2X7 receptor (hP2X7)) | inhibition at 0.1 µM (P2X7 receptor (mP2X7R) [2]) | SMILES | inhibition at 10 µM (P2X7 receptor (mP2X7R) [1])
1 | – | – | Clc1cccc(-c2nnnn2Cc2cccnc2)c1Cl [A438079] | 48.3%
2 | 13 µM | 52.7% | Cc1c(C)c(O)c2c(c1O)C(=O)C1=C(S[C@@H]3O[C@H](CO)[C@@H](O)[C@H](O)[C@H]3O1)C2=O [compound 4] | –
